Test results published in publication PMC11761369 (bioRxiv, 2025).
Blank lines part the entries; values can stand above or below the molecule they belong to.

How the values were obtained:
BBB cells = experiment: UPLC-MS of PepTGN and analogs after incubation with BBB cells; assay type: cell-based; conditions: UPLC-MS (Figure 6C)
[1] = assay type: cell-based; conditions: after 30 minutes incubation; overlaying with ER-marker (ERp57/ERp60 antibody)
bEND.3 cell line = experiment: μMap profiling of PepTGN intracellular interactors; assay type: cell-based, mouse; conditions: 37 °C, 1 h incubation
[2] = system: clathrin-mediated endocytosis; experiment: Microscopy of AA3H entry with inhibition of clathrin-mediated endocytosis; assay type: cell-based; conditions: Pitstop2 40 μM
CALCRL = CALCRL (Homo sapiens, UniProt O60894+Q16602); experiment: Flow cytometry of FITC-labeled PepTGN internalization with blocking agents; assay type: cell-based; conditions: compared to non-binding isotype control
Sequence of CALCRL (Q16602 23-461): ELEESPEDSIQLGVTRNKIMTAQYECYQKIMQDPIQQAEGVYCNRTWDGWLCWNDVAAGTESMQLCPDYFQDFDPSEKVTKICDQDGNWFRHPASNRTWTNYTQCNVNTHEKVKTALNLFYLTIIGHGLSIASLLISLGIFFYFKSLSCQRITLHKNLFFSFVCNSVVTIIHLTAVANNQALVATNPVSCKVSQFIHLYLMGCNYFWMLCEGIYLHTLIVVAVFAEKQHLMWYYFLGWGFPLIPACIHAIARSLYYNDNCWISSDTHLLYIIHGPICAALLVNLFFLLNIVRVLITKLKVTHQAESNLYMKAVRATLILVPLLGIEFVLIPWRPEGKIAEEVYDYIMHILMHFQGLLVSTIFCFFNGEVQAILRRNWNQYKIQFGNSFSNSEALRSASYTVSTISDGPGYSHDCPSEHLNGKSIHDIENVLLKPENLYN
Sequence of CALCRL (O60894 27-148): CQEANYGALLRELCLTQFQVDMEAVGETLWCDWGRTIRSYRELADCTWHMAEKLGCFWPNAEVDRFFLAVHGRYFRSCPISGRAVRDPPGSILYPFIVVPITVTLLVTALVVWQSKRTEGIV

+322 mass shift after incubation with BBB cells (BBB cells): did not display
Molecule: AGNYKALHPHNG [T12A analog]

cellular localization [1]: distinct puncta | interactor genes associated to ER and Golgi trafficking and secretory pathways (bEND.3 cell line): about 30%
Molecule: TGNYKALHPHNG [PepTGN]

Molecule: O=C1NC(=NS(=O)(=O)c2cccc3ccccc23)S/C1=C\c1ccc(Br)cc1 [Pitstop2]
effect on AA3H internalization [2]: disrupted

effect of pre-incubation on PepTGN internalization (CALCRL): significantly decreased
B1: Erenumab: monoclonal antibody used in migraine therapy that targets CALCRL and inhibits CGRP binding (antibody, chains of the INN, looked up, V domains shown)
VH: QVQLVESGGGVVQPGRSLRLSCAASGFTFSSFGMHWVRQAPGKGLEWVAVISFDGSIKYSVDSVKGRFTISRDNSKNTLFLQMNSLRAEDTAVYYCARDRLNYYDSSGYYHYKYYGMAVWGQGTTVTVSS
VL: QSVLTQPPSVSAAPGQKVTISCSGSSSNIGNNYVSWYQQLPGTAPKLLIYDNNKRPSGIPDRFSGSKSGTSTTLGITGLQTGDEADYYCGTWDSRLSAVVFGGGTKLTVL
